# Results reported in US8440656B2, “Methods of treating pulmonary diseases and disorders by modulating calcium/calmodulin dependent protein kinase II activity” (University of Iowa Research Foundation, priority 2009, dated 2013).
# Read-outs that look alike come from different tables or passages of the source.
# Legend:
# [1] = molecular target: CaMKIIδ (Homo sapiens, UniProt Q13557); settings: cited from earlier work
# [2] = test system: ovalbumin-sensitized C6B2 mice (asthma model); assay: Ovalbumin-sensitized mouse asthma model, intranasal KN-93; format: in vivo; settings: for airway resistance (Flexivent) on Methacholine challenge: KN93 100 mM intranasal during ovalbumin inhalations, at 50 and 100 μg/ml Methacholine, p<0.05, vs untreated; for Bronchoalveolar lavage eosinophils: KN93 intranasal, compared with untreated control mice
# Experimental: (§1) FIG. 4. Effects of inhaled KN-93 on asthma. (A) C6B2 mice were sensitized by two i.p. injections of ovalbumin, followed by three 30 min inhalations of ovalbumin in the presence or absence of the CaMKII inhibitor KN93 (100 μM) intranasal. Airway reactivity was determined by Methacholine challenge using the Flexivent-measured airway resistance as the readout. (B) Bronchoalveolar lavage eosinophils in mice treated with KN 93 compared with untreated control mice.
# In order to test the concept that CaMKII inhibition can reduce asthma symptoms, a validated asthma model was utilized. This model induces airway inflammation and hyper-reactivity by intra-peritoneal sensitization and inhalational challenge with the experimental allergen, ovalbumin. The “asthmatic” mice are then characterized by a graded inhalational challenge protocol using aerosolized methacholine. (See Jain et al., 2003). This approach is similar to that used in humans with clinical asthma.
# as §1, with “C6B2” for “FIG. 4. Effects of inhaled KN-93 on asthma. (A) C6B2”, “mM)” for “μM)”, “[…] (* p<0.05, n=4 per group) (FIG. 4A).” for “(B)”, “eosinophils (a measure of allergic airway inflammation) were reduced” for “eosinophils”, “mice (FIG. 4B).” for “mice.”
# Chain of CaMKIIδ (Q13557 whole entry): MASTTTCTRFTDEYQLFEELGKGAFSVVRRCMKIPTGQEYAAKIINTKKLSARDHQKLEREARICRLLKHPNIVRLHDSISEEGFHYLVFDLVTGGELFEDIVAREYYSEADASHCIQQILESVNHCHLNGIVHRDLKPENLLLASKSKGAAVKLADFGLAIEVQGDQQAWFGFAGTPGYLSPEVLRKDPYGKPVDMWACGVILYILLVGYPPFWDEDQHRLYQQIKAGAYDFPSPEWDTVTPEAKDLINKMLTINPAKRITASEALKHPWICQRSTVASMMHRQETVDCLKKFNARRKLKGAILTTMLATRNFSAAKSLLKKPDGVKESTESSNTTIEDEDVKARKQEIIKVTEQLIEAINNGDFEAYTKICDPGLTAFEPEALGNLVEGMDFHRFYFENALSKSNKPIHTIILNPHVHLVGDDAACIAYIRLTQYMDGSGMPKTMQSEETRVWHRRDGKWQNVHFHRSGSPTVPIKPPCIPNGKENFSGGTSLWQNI
Compound,IC50 [1] [µM],other results
NCCCn1cc(C2=C(c3csc4ccccc34)C(=O)NC2=O)c2ccccc21 [Compound 2],–,"IC50 ([1]; old, read-out: IC50 (μM) old): < 0.039 µM"
CC(C)(C)OC(=O)NCCCn1cc(C2=C(c3csc4ccccc34)C(=O)NC2=O)c2ccccc21 [Compound 13b],> 20,–
CC(C)(C)OC(=O)NCCCn1cc(C2=C(c3ccccc3)C(=O)NC2=O)c2ccccc21 [Compound 13g],> 20,–
CC(C)(C)OC(=O)NCCCn1cc(C2=C(c3cccs3)C(=O)NC2=O)c2ccccc21 [Compound 13l],> 20,–
NCCCn1cc(C2=C(c3ccc4ccccc4n3)C(=O)NC2=O)c2ccccc21 [Compound 14f],> 20,–
CN1C(=O)C(c2c[nH]c3ccc(Br)cc23)=C(c2cn(CCCN)c3ccccc23)C1=O [Compound 16t],> 20,–
COc1ccc(S(=O)(=O)N(CCO)c2ccccc2CN(C)C/C=C/c2ccc(Cl)cc2)cc1 [KN-93],–,airway resistance (Flexivent) on Methacholine challenge [2]: reduced airway resistance measurements; airway resistance (Flexivent) on Methacholine challenge ([2]; listed as KN93): significant reduction; Bronchoalveolar lavage eosinophils [2]: reduced eosinophils; Bronchoalveolar lavage eosinophils ([2]; listed as KN 93): reduced
